Measurements taken from patent publication US20050004225A1, “Oxidoreductase inhibitors and methods of screening and using thereof” (priority 2003, published 2005).
Read-outs that look alike come from different tables or passages of the source.

Columns and labels:
human aldose reductase = molecular target: T1, human aldose reductase (Homo sapiens, UniProt P15121); assay: Inhibition of recombinant human aldose reductase, DL-glyceraldehyde reduction, NADPH at 340 nm; format: biochemical
T1 construct: His-tag (cleaved yes); made in house; host or cells: E. coli BL21
Description: DL Glyceraldehyde, NADPH, and Bezafibrate (2-[4-[2-(4-chlorobenzamiso)ethyl]phenoxy]-2-methyl-propionic acid) were purchased from Sigma-Aldrich. All other chemicals used were of the highest purity available.
Human aldose reductase was recombinantly expressed in E. coli BL21, purified, and used for testing the efficacy of Bezafibrate in regulating aldehyde reduction reaction. […] Over night grown culture was inoculated (25 ml/l) into four 3 l flasks each containing 11 LB supplemented with ampicillin (50 μg/ml) at 37° C. with shaking (250 rpm) for 3 to 4 h until an attenuance (A600) of ˜0.7. Isopropyl β-D-thiogalactoside (IPTG, 1 mM) was added to the culture and was further incubated for 3 h to induce the expression of human aldose reductase gene. […] Cell pellets were resuspended in 80 ml of Talon extraction/wash buffer, (pH 7.9, Clonetech), and lysed by sonication with ten pulses (30 s each) and centrifuged at 12 000 g. […] The slurry was then transferred into a column allowing the matrix to pack and the supernatant to pass through at a flow rate of […]. The column was washed with 50 ml of Talon extraction/wash buffer, and the enzyme was eluted with 50 ml of Talon elution buffer. The eluted protein was dialyzed overnight using Spectra/Por 5-8 kDa MWCO at 4° C. in 50 mM sodium phosphate buffer (pH 7.0) containing 1 mM 2-mercaptoethanol. His-tag from the dialyzed protein was removed using thrombin cleavage kit (Novagen) by adding 1 μl of thrombin to 4 mg of protein and incubating overnight at room temperature. The purity of the protein at each stage of purification was assessed by SDS PAGE, and staining the gels with Coomassie Blue.
Activity with various concentrations of DL glyceraldehyde in the absence and, in the presence of various concentrations of Bezafibrate was determined by monitoring the change in NADPH concentration at room temperature 28±2° C. in a Beckman DU600 model spectrophotometer by measuring the absorbance at 340 nm, in 0.01 M sodium phosphate buffer (pH 6.2). Kinetic parameters were obtained from initial-rate activity measurements, with substrate concentrations of 0.05 mM to 10 mM. Each individual rate measurement was done in duplicate. At least three independent determinations were performed for each kinetic constant. Values were calculated using Sigmaplot Ver 8.0 (SPSS Inc.) using a non-linear Marquardt's regression algorithm that computes the coefficients (parameters) of the independent variable(s) that give the “best fit” between the equation and the data. Inhibition-constant (Ki) and, the IC50 values for bezofibrate was calculated from the secondary plot of slope values from the double-reciprocal plot versus inhibitor concentration and from the plot of rate of reaction versus inhibitor concentration respectively.
The initial rates in the presence of Bezafibrate were analyzed by using equation 1: v=Vmax/((1+Km/S)*(1+I/Ki)/(1+I*beta/Ki)) (1) where, v=rate of reaction, Vmax=maximum initial velocity for the uninhibited reaction, Km=Michaelis constant in the absence of inhibitor, Ki=inhibition constant and beta=the rate constant when enzyme substrate complex breaks down to Enzyme and Product.

rat aldose reductase = rat aldose reductase (Rattus norvegicus, UniProt P07943); settings: cited from earlier work
[1] = test system: HeLa cervical carcinoma cells; settings: cited from earlier work
[2] = test system: B16 melanoma-induced cachexia; settings: cited from earlier work; for B16 melanoma-induced cachexia: mice
hepatoma cells = settings: in the presence of 3-deoxyglucosone and glyceraldehydes; cited from earlier work
[3] = test system: isolated rabbit cardiac myocytes; assay: Cellular metabolism of adenine propenal in isolated cardiac myocytes (HPLC, ESI+/MS); format: cell-based; settings: 10 μM adenine propenal
Description: (§1) The cellular metabolism of base propenals was examined in isolated rabbit cardiac myocytes and COS-7 cells. The myocytes from rabbit ventricle were isolated as described in (46) and the COS-7 cells were obtained from ATCC. For metabolic studies, the cells were incubated with 10 μM of adenine propenal in Hepes-Ringer's buffer, pH 7.4. After 30 min of incubation, the medium was removed, and the adenine propenal and metabolites in the medium were separated by HPLC. […] To establish the structure of the glutathione conjugate peak I of the metabolites was injected into ESI^+/MS.
(§2) To probe the role of AR further, whether upregulation of AR would enhance the reductive metabolism of adenine propenal was examined. To enhance the expression of AR, the COS-7 cells were transfected with AR cDNA using lipofectamine.

COS-7 cells [4] = assay: Cellular metabolism of adenine propenal in COS-7 cells (HPLC, ESI+/MS); format: cell-based; settings: 10 μM adenine propenal; for reduction of the glutathione conjugate of adenine propenal in the presence of AR inhibitor: COS-7 cells
Description: as §1, §2
To examine changes in metabolism, the cells transfected with AR cDNA and the empty vector were incubated with 10 μM adenine propenal as described before. After 30 min of incubation, the medium was collected and separated by HPLC.

COS-7 cells [5] = assay: Toxicity of adenine propenal to COS-7 cells, MTT assay; format: cell-based; settings: 100 μM adenine propenal, pre-incubated with 100 μM sorbinil
[6] = molecular target: T2, rat lens aldose reductase (Rattus norvegicus, UniProt P07943); settings: cited from earlier work
T2 construct: host or cells: rat lens (as named)

[7] = test system: murine adenocarcinoma colon26-induced cachexia; settings: cited from earlier work
human monocytes = human monocytes stimulated by LPS in vitro; cited from earlier work
interleukin-1 (IL-1) = settings: mice; cited from earlier work
[8] = reduction of glyceraldehyde, read-out: Ki value
[9] = saturating substrate (10 mM DL-glyceraldehyde), read-out: IC50 value
[10] = Table I, recombinant human AR, reduction of DL-glyceraldehyde, read-out: K1

CC(C)(Oc1ccc(Cl)cc1)C(=O)O [2-4-Chlorophenoxy clofibric acid]
inhibitory effect on AR activity (in words) (human aldose reductase): inhibitory effect
Ki (human aldose reductase; [8]): 1.04 ± 0.047 µM
IC50 (human aldose reductase; [9]): 1.2 ± 0.1 µM

CC(C)(Oc1ccc(CCNC(=O)c2ccc(Cl)cc2)cc1)C(=O)O [Bezafibrate, 2-[4-[2-(4-chlorobenzamiso)ethyl]phenoxy]-2-methyl-propionic acid]
Ki (human aldose reductase; apparent noncompetitive inhibition constant, read-out: Ki value, unit inferred): 2 µM
IC50 (human aldose reductase; [9]): 3.8 µM

COc1cccc2c1C(=O)c1c(O)c3c(c(O)c1C2=O)C[C@@](O)(C(C)=O)C[C@@H]3O[C@H]1C[C@H](N)[C@H](O)[C@H](C)O1 [Daunorubicin]
inhibitory effect on AR activity (in words) (human aldose reductase): inhibitory effects
Ki (human aldose reductase; [10]): 21.4 ± 7.67 µM
IC50 (human aldose reductase; [9]): 5 µM

COc1cccc2c1C(=O)c1c(O)c3c(c(O)c1C2=O)C[C@@](O)(C(=O)CO)C[C@@H]3O[C@H]1C[C@H](N)[C@H](O)[C@H](C)O1 [Doxorubicin]
IC50 (human aldose reductase): 0.2 µM
Ki (human aldose reductase): 0.24 ± 0.02 µM

CCOC(=O)C1=C(O)C(=O)N(Cc2ccccc2)C1 [EBPC, ethyl 1-benzyl-3-hydroxy-2(5H)-oxopyrrole-4-carboxylate]
inhibition of rat aldose reductase (rat aldose reductase): inhibits
cell death or proliferation, EBPC alone ([1]; 30 or 50 μM EBPC alone): no effect
percentage of dead cells ([1]; 24 h, doxorubicin or 30 μM cisplatin with 30 or 50 μM EBPC, vs untreated control): significant increase
extracellular signal-regulated kinase (ERK) activity ([1]; EBPC with chemotherapeutic drugs vs chemotherapeutic drugs): increased
cytotoxic effects of doxorubicin and cisplatin ([1]; HeLa cells, combination with EBPC): enhances

COc1cccc2c1C(=O)c1c(O)c3c(c(O)c1C2=O)C[C@@](O)(C(=O)CO)C[C@@H]3O[C@H]1C[C@H](N)[C@@H](O)[C@H](C)O1 [Epirubicin]
IC50 (human aldose reductase): 5.5 µM
Ki (human aldose reductase): 77.6 µM

Cc1ccc(C)c(OCCCC(C)(C)C(=O)O)c1 [Gemfibrozil]
inhibitory effect on AR activity (in words) (human aldose reductase): inhibitory effect
IC50 (human aldose reductase; Table I, recombinant human AR, reduction of DL-glyceraldehyde, read-out: IC50): 6.5 ± 0.02 µM
Ki (human aldose reductase; [10]): 3.5 ± 0.79 µM
Ki (human aldose reductase; [8]): 2.74 ± 0.072 µM
IC50 (human aldose reductase; [9]): 3 ± 0.2 µM

CC(=O)[C@]1(O)Cc2c(O)c3c(c(O)c2[C@@H](O[C@H]2C[C@H](N)[C@H](O)[C@H](C)O2)C1)C(=O)c1ccccc1C3=O [Idamycin]
inhibitory effect on AR activity (in words) (human aldose reductase): inhibitory effects
Ki (human aldose reductase; [10]): 20.5 ± 1.5 µM
IC50 (human aldose reductase; [9]): 5.6 µM

O=[N+]([O-])NC1=NCCN1Cc1ccc(Cl)nc1 [Imidcloprid, N-(6-chloropyridin-3-ylmethyl)-2-nitroiminoimidazolidine]
IC50 (human aldose reductase; IC50 value, saturating substrate (10 mM DL-glyceraldehyde)): 1.5 µM
Ki (human aldose reductase; Ki value, reduction of glyceraldehyde): 12.6 µM

CCOP(=O)(Cc1ccc(C(=O)Nc2ccc(Br)cc2C#N)cc1)OCC [NO-1886]
weight of epididymal fat and whole body lipid ([2]; mice after intraperitoneal inoculation of B16): ameliorated
B16 melanoma-induced cachexia [2]: alleviated

CC(/C=C1\SC(=S)N(CC(=O)O)C1=O)=C\c1ccccc1 [ONO-2235]
viability of hepatoma cells (hepatoma cells): decreased

O=C1NC(=O)[C@@]2(CCOc3ccc(F)cc32)N1 [Sorbinil]
inhibitory effect on AR activity (in words) (human aldose reductase): inhibitory effects
reduction of the glutathione conjugate of adenine propenal in the presence of AR inhibitor [3]: significantly prevented
adenine propenol peak (22 min) in AR cDNA-transfected cells (COS-7 cells [4]; AR-transfected COS-7 cells, 30 min, in the presence of sorbinil): completely abolished
reduction of the glutathione conjugate of adenine propenal in the presence of AR inhibitor (COS-7 cells [4]): significantly prevented
half life of cell viability after pre-incubation with AR inhibitor (COS-7 cells [5]): 6.1 ± 0.5 h

N#CC(=C(/N)Sc1ccccc1N)/C(C#N)=C(\N)Sc1ccccc1N [U0126]
EBPC-mediated enhancement of cell death ([1]; inhibition of ERK activation by MEK inhibitor): reversed

O=C(O)Cc1nn(Cc2nc3cc(C(F)(F)F)ccc3s2)c(=O)c2ccccc12 [Zopolrestat]
inhibitory effect on AR activity (in words) (human aldose reductase): inhibitory effects

OC/C=C/c1ccccc1 [ainnnamyl alcohol]
inhibition against rat AR [6]: weak inhibition

O=CC=Cc1ccccc1 [cinnamaldehyde]
inhibition against rat AR [6]: high potency

C=CCc1ccc(O)c(OC)c1 [eugenol]
inhibition against rat AR [6]: weak inhibition

O=C(O)Cc1nn(Cc2ccc(Br)cc2F)c(=O)c2ccccc12 [ponalrestat]
B16 melanoma-induced cachexia [2]: inhibited
survival ([7]; colon26 bearing mice): significantly prolonged
weight of body mass, epididymal fat, gastrocnemius muscle and carcass ([7]; colon26 bearing mice): attenuated the reduction
tumor growth ([7]; mice bearing colon26 subcutaneously): slightly stimulated
production of interleukin-1 (IL-1) (human monocytes): inhibited
LPS-induced increase of IL-1 in the blood (interleukin-1 (IL-1)): suppressed

COc1ccc2c(C(=S)N(C)CC(=O)O)cccc2c1C(F)(F)F [tolrestat]
reduction of the glutathione conjugate of adenine propenal in the presence of AR inhibitor [3]: significantly prevented
reduction of the glutathione conjugate of adenine propenal in the presence of AR inhibitor (COS-7 cells [4]): significantly prevented

O=C(O)/C=C/c1ccccc1 [trans-cinnamic acid]
inhibition against rat AR [6]: weak inhibition

N#CC(=Cc1ccc(O)cc1)C(=O)O [α-cyano-4-hydroxycinnamic acid]
IC50 (human aldose reductase): 0.08 ± 0.005 µM
Ki (human aldose reductase): 0.085 µM
inhibition pattern with respect to reduction of glyceraldehyde, forward direction (human aldose reductase; recombinant hAR, Lineweaver-Burk plot): partial noncompetitive inhibition pattern
